Experimental data published in US20040121954A1, “Poly(dipeptide) as a drug carrier” (priority 1999, published 2004).

Test system: PC3 (prostate); KB (nasopharyngeal); MDA MB 231 (breast)
Assay: In vitro cell culture assay (MTT), cell inhibition in three human tumor cell lines
Conditions: 72 hours

## CC(=O)O[C@H]1C(=O)[C@@]2(C)[C@H]([C@H](OC(=O)c3ccccc3)[C@]3(O)C[C@H](OC(=O)[C@H](O)[C@@H](NC(=O)c4ccccc4)c4ccccc4)C(C)=C1C3(C)C)[C@]1(OC(C)=O)CO[C@@H]1C[C@@H]2O [paclitaxel]
  cell inhibition at lower concentrations: more pronounced
